Experimental data reported in patent US12012415B2, “Compositions and methods for the diagnosis, treatment and prevention of neoplastic and neurological disorders” (AscentGene, Inc., priority 2018, dated 2024).
“Also recorded” adds a separate entry of the source.

Legend:
[1] = system: A549 xenograft (NSCLC tumor); test: A549 xenograft mice, AG-1031 treatment after inoculation; type: in vivo; settings: 20-40 μg/mice IP every other day, 28 days, after tumor formation
Procedure: Mice were treated with AG-1031 (20-40 μg/mice) every other day via IP injection after A549 inoculate to the SHO mice treatment and followed for up to 28 days.
Tumor volume was measured during treatment of NSCLC cells with AG-1031 over 28 days.

[2] = system: glioma (glioblastoma cell line C6); test: C6 glioma xenograft model, tumor growth, behaviour and memory; type: in vivo, rats; settings: for ability of new object recognition: rat, in vivo; for recovery of memory loss and loss of other activities: xenograft model of C6 cell line
[3] = system: Rat glioblastoma cell lines C6; test: Cell growth of glioblastoma cell line C6; type: cell-based; settings: cell growth rate from number of live cells
Procedure: (§1) Rat glioblastoma cell lines C6 (A) and human non-small cell lung cancer cell line H841 (B) were grown in the proper medium and treated with different concentration of drug candidate AG-1031 (P) and AG-1503 (#3). Cell growth rate was calculated based on the number of live cells as compared to concentration in M of selected small molecules of the invention (see FIGS. 6A and 6B).

[4] = system: human non-small cell lung cancer cell line H841; test: Cell growth of NSCLC cell lines; type: cell-based; settings: cell growth rate from number of live cells
Procedure: as §1

[5] = system: A549 xenograft (NSCLC formation); test: A549 xenograft mice, AG-1031 pre-injection (vaccine); type: in vivo
Procedure: AG-1031 was injected into mice two weeks before injection of tumor cell (see FIG. 9).
Tumor volume was measured for 35 days after administration of AG-1031 to xenograft mice.
IP inject with AG-1031 40 μg/mice, once a week (×2) before A549 cells inoculate to the SHO mice. Assessment of AG-1031 effect on tumor growth in A549 xenograft mice.

PC4 protein = PC4 protein (Homo sapiens, UniProt P53999); test: PC4-DNA binding interference; settings: for PC4 inhibition: high-throughput screen platform
Procedure: A number of small molecules were incubated with PC4 protein and DNA binding assessed.

Row | Substance | growth of NSCLC tumor [1] | ability of new object recognition [2] | glioma growth ([2]; xenograft model from C6 cell line) | recovery of memory loss and loss of other activities [2] | inhibition of growth of glioma cell line C6 [3] | inhibition of growth of NSCLC cell lines [4] | tumor volume ([5]; AG-1031 injected two weeks before tumor cells, control 302.9 mm^3) [mm^3] | tumor volumes ([5]; measured for 35 days after administration) | prevention of tumor formation ([5]; pre-injection of AG-1031 before tumor cells) | PC4 inhibition (PC4 protein) | interference of PC4-DNA binding (PC4 protein; small molecules incubated with PC4 protein, in vitro) | open-field anxiety and activity ([2]; rats with glioma)
1 | 9-methyl (I) and 13-methyl (II) trans-(+)-18-ethenyl-4,4a-dihydro-3,4-bis(methoxycarbonyl)4a,8,14,19-tetramethyl-23H, 25H-benzo[b]porphine-9,13-dipropanoate [AG-1031] | inhibits growth of NSCLC tumor cells; also recorded: inhibiting tumor growth | showed efficacy to improve ability of new object recognition | significantly inhibited glioma growth | recovery of memory loss and other activity loss | inhibition of rat glioblastoma cell line C6 | inhibition of human non-small cell lung cancer cell line H841; also recorded: inhibited non-small cell lung cancer (NSCLC) cell growth | 69.0 | substantially reduces tumor volumes | prevents NSCLC formation in vivo; also recorded: effectively prevented tumor formation | strong PC4 inhibitor | significant interference of PC4-DNA binding; also recorded: specifically inhibits PC4 activity by blocking its double stranded DNA binding ability | 
2 | Coproporphyrin III tetramethyl ester [AG-1503] |  | showed efficacy to improve ability of new object recognition |  | better activity for recovering memory loss and loss of other activities | inhibition of rat glioblastoma cell line C6; also recorded: specific inhibitory activity on growth of glioma cell line C6 | inhibition of human non-small cell lung cancer cell line H841; also recorded: not significant inhibitory activity on growth of NSCLC cell lines |  |  |  | strong PC4 inhibitor |  | improvement of anxiety and activity
